“And” between values parts separate entries of the source, which are not always exact repeats. Equal entries are not always repeated. Inconclusive results and toxic doses are left out. Cut-off read from the data, not from the text of the source: active = T/C of 150% or more; inactive = T/C below 125%.
Test system: L1210 leukemia ip in BDF1 mice, survival T/C
Experiment: NCI In Vivo Anticancer Drug Screen. Data for tumor model L1210 Leukemia (intraperitoneal) in B6D2F1 (BDF1) mice
Conditions: endpoint: mean survival time, higher = longer survival
In short: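 Antitumor effect is assessed in tumor-bearing animals. Survival in the compound arm is compared with a vehicle-dosed control arm and expressed as their quotient.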

[1] = dose: 100.0 mg/kg/injection, schedule: Q04DX003 (ip), vehicle: Klucel (hydroxypropylcellulose) (HPC)
[2] = dose: 200.0 mg/kg/injection, schedule: Q04DX003 (ip), vehicle: Klucel (hydroxypropylcellulose) (HPC)
[3] = dose: 400.0 mg/kg/injection, schedule: Q04DX003 (ip), vehicle: Klucel (hydroxypropylcellulose) (HPC)
[4] = dose: 100.0 mg/kg/injection, schedule: Q01DX001 (ip), vehicle: saline
[5] = dose: 200.0 mg/kg/injection, schedule: Q01DX001 (ip), vehicle: saline
[6] = dose: 400.0 mg/kg/injection, schedule: Q01DX001 (ip), vehicle: saline
[7] = dose: 100.0 mg/kg/injection, schedule: Q04DX002 (ip), vehicle: Klucel (hydroxypropylcellulose) (HPC)
[8] = dose: 200.0 mg/kg/injection, schedule: Q04DX002 (ip), vehicle: Klucel (hydroxypropylcellulose) (HPC)
[9] = dose: 400.0 mg/kg/injection, schedule: Q04DX002 (ip), vehicle: Klucel (hydroxypropylcellulose) (HPC)
[10] = dose: 100.0 mg/kg/injection, schedule: Q01DX009 (ip), vehicle: Klucel (hydroxypropylcellulose) (HPC)
[11] = dose: 200.0 mg/kg/injection, schedule: Q01DX009 (ip), vehicle: Klucel (hydroxypropylcellulose) (HPC)
[12] = dose: 400.0 mg/kg/injection, schedule: Q01DX009 (ip), vehicle: Klucel (hydroxypropylcellulose) (HPC)
[13] = dose: 100.0 mg/kg/injection, schedule: Q04DX002 (ip), vehicle: saline

Measured: T/C

CCC(=O)c1ccc2c(c1)N(C(C)CN(C)C)c1ccccc1S2 (centres undefined)
inactive: dose: 1.56 mg/kg/injection, schedule: Q03HX024 (ip), vehicle: saline 100 % of control | dose: 3.12 mg/kg/injection, schedule: Q03HX024 (ip), vehicle: saline 102 % of control | dose: 6.25 mg/kg/injection, schedule: Q01DX009 (ip), vehicle: saline 100 % of control and 106 % of control | dose: 6.25 mg/kg/injection, schedule: Q03HX024 (ip), vehicle: saline 100 % of control | dose: 6.25 mg/kg/injection, schedule: Q04DX003 (ip), vehicle: saline 101 % of control | dose: 12.5 mg/kg/injection, schedule: Q01DX009 (ip), vehicle: saline 104 % of control and 109 % of control and 110 % of control | dose: 12.5 mg/kg/injection, schedule: Q03HX024 (ip), vehicle: saline 100 % of control | dose: 12.5 mg/kg/injection, schedule: Q04DX003 (ip), vehicle: saline 103 % of control | dose: 18.75 mg/kg/injection, schedule: Q01DX001 (ip), vehicle: saline 107 % of control | dose: 25.0 mg/kg/injection, schedule: Q01DX009 (ip), vehicle: saline 106 % of control and 110 % of control and 116 % of control | dose: 25.0 mg/kg/injection, schedule: Q04DX003 (ip), vehicle: saline 103 % of control and 104 % of control | dose: 37.5 mg/kg/injection, schedule: Q01DX001 (ip), vehicle: saline 115 % of control | dose: 50.0 mg/kg/injection, schedule: Q01DX009 (ip), vehicle: saline 109 % of control and 118 % of control | dose: 50.0 mg/kg/injection, schedule: Q04DX003 (ip), vehicle: saline 109 % of control and 120 % of control | dose: 75.0 mg/kg/injection, schedule: Q01DX001 (ip), vehicle: saline 109 % of control | dose: 100.0 mg/kg/injection, schedule: Q01DX009 (ip), vehicle: saline 90 % of control | dose: 150.0 mg/kg/injection, schedule: Q01DX001 (ip), vehicle: saline 96 % of control

O=C(O)C(Br)C(Br)c1ccccc1 (centres undefined)
inactive: dose: 100.0 mg/kg/injection, schedule: Q04DX003 (ip), vehicle: saline with Tween-80 101 % of control | dose: 200.0 mg/kg/injection, schedule: Q04DX003 (ip), vehicle: saline with Tween-80 106 % of control | dose: 400.0 mg/kg/injection, schedule: Q04DX003 (ip), vehicle: saline with Tween-80 96 % of control

CC(=O)Nc1ccc(OC(=S)N(C)C)cc1
inactive: [1] 96 % of control | [2] 97 % of control | [3] 101 % of control

COc1cccc(/C=N/N=C(N)N)c1
inactive: dose: 15.0 mg/kg/injection, schedule: Q01DX Z (ip), vehicle: saline 94 % of control | dose: 30.0 mg/kg/injection, schedule: Q01DX Z (ip), vehicle: saline 97 % of control | dose: 30.0 mg/kg/injection, schedule: Q01DX Z (oral), vehicle: saline 104 % of control | dose: 60.0 mg/kg/injection, schedule: Q01DX Z (ip), vehicle: saline 92 % of control | dose: 60.0 mg/kg/injection, schedule: Q01DX Z (oral), vehicle: saline 104 % of control | dose: 120.0 mg/kg/injection, schedule: Q01DX Z (oral), vehicle: saline 101 % of control

ClC1C2CC3C(C2)C13 (centres undefined)
inactive: dose: 100.0 mg/kg/injection, schedule: Q01DX001 (ip), vehicle: carboxymethylcellulose (CMC) 95 % of control | dose: 200.0 mg/kg/injection, schedule: Q01DX001 (ip), vehicle: carboxymethylcellulose (CMC) 95 % of control | dose: 400.0 mg/kg/injection, schedule: Q01DX001 (ip), vehicle: carboxymethylcellulose (CMC) 95 % of control

CC(C)=CCC/C(C)=C/C(=O)O
inactive: [4] 100 % of control | [5] 93 % of control | [6] 93 % of control

CC(C)OC(=O)Nc1ccc(C(F)(F)F)cc1
inactive: [7] 97 % of control and 100 % of control | [8] 88 % of control | [9] 103 % of control and 112 % of control

O=C(Sc1cccc(Br)c1)c1ccccc1
inactive: dose: 100.0 mg/kg/injection, schedule: Q01DX001 (ip), vehicle: other 100 % of control | dose: 200.0 mg/kg/injection, schedule: Q01DX001 (ip), vehicle: other 95 % of control | dose: 400.0 mg/kg/injection, schedule: Q01DX001 (ip), vehicle: other 94 % of control

Cc1ccc(C)c(NC(=O)Nc2ccccc2C)c1
inactive: [10] 88 % of control | [1] 86 % of control | [11] 101 % of control and 90 % of control | [2] 89 % of control | [3] 89 % of control

NCCCNC/C=C/CNCCCN
inactive: dose: 75.0 mg/kg/injection, schedule: Q04DX003 (ip), vehicle: saline 105 % of control | dose: 150.0 mg/kg/injection, schedule: Q04DX003 (ip), vehicle: saline 102 % of control | dose: 300.0 mg/kg/injection, schedule: Q04DX003 (ip), vehicle: saline 104 % of control

CCOC(=O)CSc1ccc([N+](=O)[O-])cc1Cl
inactive: [10] 102 % of control | [7] 96 % of control and 101 % of control | [11] 106 % of control | [8] 104 % of control and 106 % of control | [12] 104 % of control | [9] 95 % of control and 101 % of control

CCCCCCCCN(C)N=Nc1ccc(C(N)=O)cc1
inactive: dose: 118.0 mg/kg/injection, schedule: Q01DX009 (ip), vehicle: Klucel (hydroxypropylcellulose) (HPC) 122 % of control | dose: 175.0 mg/kg/injection, schedule: Q01DX009 (ip), vehicle: Klucel (hydroxypropylcellulose) (HPC) 115 % of control

CCC[CH2][Sn]([CH2]CCC)([CH2]CCC)[CH2]C(C)(C)c1ccccc1
inactive: dose: 75.0 mg/kg/injection, schedule: Q01DX001 (ip), vehicle: other 91 % of control

CC(=O)CCC(C#N)c1ccccc1 (centres undefined)
inactive: dose: 25.0 mg/kg/injection, schedule: Q04DX002 (ip), vehicle: saline 104 % of control | dose: 50.0 mg/kg/injection, schedule: Q04DX002 (ip), vehicle: saline 107 % of control | [13] 93 % of control and 111 % of control

Cc1cccc(Cl)c1NC(=O)Nc1onc(C)c1C
inactive: [10] 103 % of control | [11] 100 % of control | [12] 92 % of control

CC1C/C(=C\NC(N)=O)C(=O)O1 (centres undefined)
inactive: dose: 100.0 mg/kg/injection, schedule: Q01DX009 (ip), vehicle: water 96 % of control | dose: 100.0 mg/kg/injection, schedule: Q04DX003 (ip), vehicle: water 94 % of control | dose: 200.0 mg/kg/injection, schedule: Q01DX009 (ip), vehicle: water 100 % of control | dose: 200.0 mg/kg/injection, schedule: Q04DX003 (ip), vehicle: water 89 % of control | dose: 400.0 mg/kg/injection, schedule: Q01DX009 (ip), vehicle: water 102 % of control | dose: 400.0 mg/kg/injection, schedule: Q04DX003 (ip), vehicle: water 96 % of control

C(=N\Nc1c2ccccc2nc2ccccc12)/c1ccc2c(c1)OCO2
inactive: [4] 89 % of control | [5] 100 % of control | [6] 89 % of control

O=C(/C=C/c1ccco1)c1ccc([N+](=O)[O-])cc1
inactive: dose: 25.0 mg/kg/injection, schedule: Q04DX003 (ip), vehicle: Klucel (hydroxypropylcellulose) (HPC) 106 % of control | dose: 50.0 mg/kg/injection, schedule: Q04DX003 (ip), vehicle: Klucel (hydroxypropylcellulose) (HPC) 104 % of control | [1] 97 % of control

COc1ccc(CCOC(C)=O)cc1
inactive: [13] 97 % of control | dose: 200.0 mg/kg/injection, schedule: Q04DX002 (ip), vehicle: saline 102 % of control | dose: 400.0 mg/kg/injection, schedule: Q04DX002 (ip), vehicle: saline 102 % of control

From PubChem BioAssay AID248 (DTP/NCI, 2004)
